Results reported in patent publication US20190142744A1, “NUCLEIC ACID NANOCAGES, COMPOSITIONS, AND USES THEREOF” (North Carolina State University, priority 2015, published 2019).

Assays:
U2OS.EGFP cells = assay: Determination of endocytosis pathways in U2OS.EGFP cells; format: cell-based, human; settings: MCD 3 mM, AMI 1 mM, flow cytometry
Method: U2OS.EGFP cells were seeded in 24-well plates (˜25000 cells/well) and cultured for 2 d. Then the cells were pre-incubated with several endocytosis inhibitors^[19b], such as chlorpromazine (CPZ, 10 μM) for clathrin-mediated endocytosis, nystatin (NYS, 25 μg/mL) for caveolin-mediated endocytosis, methyl-β-cyclodextrin (MCD, 3 mM) for lipid raft and amiloride (AMI, 1 mM) for macropinocytosis, for 1 h at 37° C., respectively. Afterwards, the cells were incubated with AF647-Cas9/sgRNA/NC/PEI for another 2 h in the presence of the inhibitors. Cells were then washed, trypsinized and resuspended in full serum medium, intracellular AF647 fluorescence intensities were analyzed by flow cytometry.

MCF-7 cells = assay: Determination of endocytosis pathways in MCF-7 cells; format: cell-based, human; settings: CPZ 10 μM, AMI 1 mM, DOX 2 μM, 2 h
Method: MCF-7 cells were seeded in 6-well plates (1×10^4 cells per well) and culture for 48 h. […] Then the cells were incubated with DOX/FA-NCl/NCa at DOX concentration of 2 μM or FA-NCI/AF488-NCa of the same concentration in the presence of the inhibitors for another 2 h. After washing the cells by 4° C. PBS twice, the cells were lysed with Pierce IP lysis buffer (Thermo Scientific) and centrifuged. Fluorescence of DOX and AF488 and protein concentration in the supernatant were measured, respectively, by a microplate reader (Infinite […], Tecan).

[1] = Stability of DNA NC incubated with Cas9/sgRNA (agarose gel); format: physicochemical; settings: Cas9/sgRNA 24 h
Method: The DNA NCs were prepared by RCA using cyclized single stranded DNA (ssDNA) templates. 5′ phosphorylated linear ssDNA templates (FIG. 21) were cyclized by CircLigase II ssDNA ligase (Epicentre) following manufacture's instructions. Unligated ssDNA chains were removed with 1 U Exo I (NEB) at 37° C. for 45 min followed by heat inactivation at 80° C. for 15 min. The cyclized ssDNA template (10 pmol) was added into 1 mL 1× isothermal amplification buffer (NEB) together with 0.5 μM primer and 200 μM dNTP and heated to 95° C. for 5 min. After hybridizing the template and primer by cooling the mixture to room temperature, Bst 2.0 DNA polymerase (0.2 U/μL) was added to initiate the RCA. The RCA was performed at 65° C. overnight and the denatured polymerase after the reaction was removed by centrifugation at 14,000×g for 2 min. […] The synthesized DNA NCs were analyzed by 0.8% agarose gel electrophoresis and Nanodrop 2000C (Thermal Scientific) was applied to measure the concentration and purity of the DNA NC. […] Zeta potential and particle size of NC were measured with a Zetasizer (Malvern). To image the NC by atomic force microscopy (AFM), the NC was dropped and dried onto a silicon wafer (Ted Pella) and analyzed on a Nanoscope AFM instrument (Veeco, Santa Barbara, Calif.) using tapping mode in ambient air.

[2] = test system: EGFP gene in U2OS.EGFP cells; assay: EGFP gene disruption assay in U2OS.EGFP cells (fluorescence microscopy, flow cytometry); format: cell-based, human; settings: NC-23, NC-12, NC-0 coated with PEI; different Cas9/sgRNA molar ratios
Method: The reporter cell line U2OS.EGFP with a single copy of destabilized EGFP gene integrated into the genome was a generous gift from Dr. J Keith Joung at Massachusetts General Hospital.^[6b] The cells were cultured in a 37° C. incubator under 5% CO2 and 90% humidity with full serum medium: Dulbecco's Modified Eagle's Medium supplemented with 10% (v/v) FBS, 2 mM GlutaMAX (Life Technologies), penicillin (100 U/mL) and streptomycin (100 μg/mL). U2OS.EGFP cells were seeded into 24-well plates (˜25,000 cells per well) one day before the transfection. […] Two days after the delivery, the cells were analyzed using a fluorescent microscope (IX71, Olympus). For the flow cytometry analysis, the cells were washed with ice cold PBS twice and trypsinized with 0.05% trypsin (Mediatech) at 37° C. for 1-2 min. Afterwards, the cells were washed and resuspended in full serum medium and analyzed by a BD Accuri C6 flow cytometer (BD Biosciences).

| Molecule | effect of endocytosis inhibitor on uptake of Cas9/sgRNA/NC-12/PEI (AF647-Cas9) (U2OS.EGFP cells) | effect of endocytosis inhibitor on internalization of DOX/FA-NCl/NCa (MCF-7 cells) | resistance of DNA NC to Cas9/sgRNA degradation [1] | other results |
| --- | --- | --- | --- | --- |
| methyl-β-cyclodextrin | greatest reduction in Cas9 uptake |  |  |  |
| CN(C)CCCN1c2ccccc2Sc2ccc(Cl)cc21 [chlorpromazine] |  | pronounced effects in inhibiting the internalization |  |  |
| N=C(N)NC(=O)c1nc(Cl)c(N)nc1N [amiloride] | greatest reduction in Cas9 uptake | pronounced effects in inhibiting the internalization |  |  |
| NC-0: DNA NC variant with 0 nucleotides complementary to the sgRNA (nucleic acid, DNA nanoclew made by rolling circle amplification of circularized template, further chemistry not given here; the letters are possibly those of the target site, DNA NC variant with 0 nucleotides complementary to the sgRNA) DNA: GAGAAACGAGTGCGGTCACAGCTAAGCTAGATGCATCTAGCAAGCGCCGCCACTGATTTCACCGCTTCAAGCTAGATGCATCTAGCAAT |  |  | resistant to Cas9/sgRNA degradation |  |
| NC-23: DNA NC variant with 23 nucleotides complementary to the sgRNA (nucleic acid, DNA nanoclew made by rolling circle amplification of circularized template, further chemistry not given here; the letters are possibly those of the target site, DNA NC variant with 23 nucleotides complementary to the sgRNA) DNA: GGGCACGGGCAGCTTGCCGGTGGAAGCTAGATGCATCTAGCAAGCGCCGCCACTGATTTCACCGCTTCAAGCTAGATGCATCTAGCAAT |  |  | resistant to Cas9/sgRNA degradation |  |
| NC-12: DNA nanoclew encoding 12 nucleotides complementary to the 5′ end of the sgRNA (nucleic acid, Rolling circle amplification template for DNA nanoclew, further chemistry not given here; the letters are possibly those of the target site, DNA nanoclew encoding 12 nucleotides complementary to the 5′ end of the sgRNA) DNA: GCTACCGGGCAGCTTGCATCAATAAGCTAGATGCATCTAGCAAGCGCCGCCACTGATTTCACCGCTTCAAGCTAGATGCATCTAGCAAT |  |  |  | fraction of EGFP negative cells among DNA NC variants [2]: highest fraction of EGFP negative cells |
